Test results taken from ChEMBL document CHEMBL1124317, “Rationale for the synthesis and preliminary biological evaluation of highly active new antitumor nitrosoureido sugars” (J Med Chem, 1989).

Columns and labels:
Mus musculus [1] = experiment: Median survival time of the non surviving mice; treated with 10 mg/kg of compound to mice with B16 Melanocarcinoma; 34-47; type: functional
Mus musculus [2] = species: Mus musculus; experiment: (§1) Lethal dose was evaluated in female mouse; type: toxicity, organism-based; details: in vivo
[3] = as §1; type: toxicity, organism-based; details: in vivo
Mus musculus [4] = experiment: Anti tumor activity l when treated to mice with L1210 leukemia with 5 mg/kg dose of compound intraperitoneally was expressed as percent of treated to control (T/C %); type: functional; details: route intraperitoneal
Mus musculus [5] = experiment: Anti tumor activity in olive oil when treated to mice with B16 melanocarcinoma with 20 mg/kg dose of compound intraperitoneally was expressed as percent of treated to control (T/C %); type: functional; details: route intraperitoneal
Mus musculus [6] = experiment: The number of L1210 leukemia mice survived after 30 days with compound injected by a dose of 5 mg/kg intraperitoneally; 8/8; type: functional; details: route intraperitoneal
Mus musculus [7] = experiment: Median survival time of the non surviving mice; treated with 20 mg/kg of compound in olive oil to mice with L1210 leukemia tumor; […]; type: functional
Mus musculus [8] = experiment: Median survival time of the non surviving mice; treated with 5 mg/kg of compound to mice with B16 Melanocarcinoma; 30-47; type: functional
Mus musculus [9] = species: Mus musculus; experiment: (§2) Lethal dose was evaluated in male mouse; type: toxicity, organism-based; details: in vivo
[10] = as §2; type: toxicity, organism-based; details: in vivo
[11] = Mortality range of the mice with B16 Melanocarcinoma treated with 10 mg/kg of dose intraperitoneally with no of mice survived/no of mice treated; 0/10; type: functional; details: route intraperitoneal
Mus musculus [12] = experiment: The number of L1210 leukemia mice survived after 60 days with compound injected by a dose of 10 mg/kg intraperitoneally; 9/10; type: functional; details: route intraperitoneal
[13] = Mortality range of the mice with L1210 leukemia treated with 5 mg/kg of dose intraperitoneally with no of mice survived/no of mice treated; 0/10; type: functional; details: route intraperitoneal
Mus musculus [14] = experiment: The number of L1210 leukemia mice survived after 60 days with compound injected by a dose of 10 mg/kg intra peritoneally; 8/8; type: functional
[15] = Mortality range of the mice with B16 Melanocarcinoma treated with 5 mg/kg of dose intraperitoneally with no of mice survived/no of mice treated; 0/10; type: functional; details: route intraperitoneal
Mus musculus [16] = experiment: The number of B16 melanocarcinoma mice survived after 30 days with compound in olive oil injected by a dose of 20 mg/kg intraperitoneally; 13/20; type: functional; details: route intraperitoneal
[17] = Mortality range of the mice with L1210 leukemia treated with 20 mg/kg of dose intraperitoneally with no of mice survived/no of mice treated; 0/10; type: functional; details: route intraperitoneal
[18] = Mortality range of the mice with L1210 leukemia treated with 30 mg/kg of dose intraperitoneally with no of mice survived/no of mice treated; 1/10; type: functional; details: route intraperitoneal
Mus musculus [19] = experiment: The number of L1210 leukemia mice survived after 30 days with compound injected by a dose of 0.625 mg/kg intraperitoneally; 0/8; type: functional; details: route intraperitoneal
Mus musculus [20] = experiment: The number of L1210 leukemia mice survived after 30 days with compound injected by a dose of 30 mg/kg intraperitoneally; 9/10; type: functional; details: route intraperitoneal
Mus musculus [21] = experiment: Median survival time of the non surviving mice; treated with 2.5 mg/kg of compound to mice with L1210 leukemia; 40-54; type: functional
[22] = Ratio of mice died to that of mice treated with 5 mg/kg of compound in aqueous solution intraperitoneally with L1210 leukemia; 0/10; type: functional; details: route intraperitoneal
Mus musculus [23] = experiment: The number of L1210 leukemia mice survived after 30 days with compound in aqueous solution injected by a dose of 20 mg/kg intraperitoneally; 6/10; type: functional; details: route intraperitoneal
Mus musculus [24] = experiment: The number of L1210 leukemia mice survived after 30 days with compound injected by a dose of 10 mg/kg intraperitoneally; 8/8; type: functional; details: route intraperitoneal
Mus musculus [25] = experiment: The number of L1210 leukemia mice survived after 60 days with compound injected by a dose of 5 mg/kg intraperitoneally; 2/10; type: functional; details: route intraperitoneal
Mus musculus [26] = experiment: The number of L1210 Leukemia mice survived after 30 days with compound in olive oil injected by a dose of 20 mg/kg intraperitoneally; 15/15; type: functional; details: route intraperitoneal
[27] = Mortality range of the mice with B16 Melanocarcinoma treated with 20 mg/kg of dose intraperitoneally with no of mice survived/no of mice treated; 0/10; type: functional; details: route intraperitoneal
Mus musculus [28] = experiment: The number of B16 Melanocarcinoma mice survived after 60 days with compound injected by a dose of 20 mg/kg intraperitoneally; 9/10; type: functional; details: route intraperitoneal
[29] = Ratio of mice died to that of mice treated with 20 mg/kg of compound in olive oil intraperitoneally with Lewis lung; 0/20; type: functional; details: route intraperitoneal
Mus musculus [30] = experiment: The number of L1210 leukemia mice survived after 30 days with compound injected by a dose of 20 mg/kg intraperitoneally; 10/10; type: functional; details: route intraperitoneal

CO[C@@H]1C[C@@H](NC(=O)N(CCCl)N=O)[C@H](O)[C@@H](CO)O1 [ECOMUSTINE]
Median survival time (Mus musculus [1]): 44 | LD10 (Mus musculus [2]): 29.4 mg/kg | LD90 (Mus musculus [2]): 56.4 mg/kg | LD50 [3]: 40.7 mg/kg | T/C (Mus musculus [4]): 164% | T/C (Mus musculus [5]): 239% | Survivals (Mus musculus [6]): 8 | Median survival time (Mus musculus [7]): 57.5 | Median survival time (Mus musculus [8]): 40 | LD10 (Mus musculus [9]): 31.2 mg/kg | LD90 (Mus musculus [9]): 60 mg/kg | LD50 [10]: 43.3 mg/kg | Ratio [11]: 0 | Survivals (Mus musculus [12]): 9 | Ratio [13]: 0 | Survivals (Mus musculus [14]): 8 | Ratio [15]: 0 | Survivals (Mus musculus [16]): 13 | Ratio [17]: 0 | Ratio [18]: 1 | Survivals (Mus musculus [19]): 0 | Survivals (Mus musculus [20]): 9 | Median survival time (Mus musculus [21]): 43.2 | Ratio [22]: 0 | Survival after 30 days (Mus musculus [23]): 6 | Survivals (Mus musculus [24]): 8 | Survivals (Mus musculus [25]): 2 | Survivals (Mus musculus [26]): 15 | Ratio [27]: 0 | Survivals (Mus musculus [28]): 9 | Ratio [29]: 0 | Survivals (Mus musculus [30]): 10
